# Experiments:
# late watergrass [1] = experiment: Test Example 1: herbicidal activity, application before weed generation under submerged conditions (Table 16, symbol A); format: in vivo, late watergrass (Echinochloa oryzicola); settings: for Herbicidal effect, A: late watergrass: amount of applied herbicide 320 g/ha
# In short: (§1)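 Alluvial soil was flooded to 4 cm depth, weed seeds were sown mixed and 2.5-leaf rice seedlings were transplanted. On sowing day, the compound's emulsion, diluted in water to a set dose, was applied to the water surface. Plants grew at 25–30 °C and were scored 0–5 after three weeks.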
# Japanese bulrush [2] = experiment: Test Example 1: herbicidal activity, application before weed generation under submerged conditions (Table 16, symbol B); format: in vivo, Japanese bulrush (Schoenoplectus juncoides); settings: for Herbicidal effect, B: Japanese bulrush: amount of applied herbicide 320 g/ha
# In short: as §1
# oval-leafed pondweed [3] = experiment: Test Example 1: herbicidal activity, application before weed generation under submerged conditions (Table 16, symbol C); format: in vivo, oval-leafed pondweed (Monochoria vaginalis); settings: for Herbicidal effect, C: oval-leafed pondweed: amount of applied herbicide 320 g/ha
# In short: as §1
# late watergrass [4] = experiment: Test Example 2: herbicidal activity, application during weed generation under submerged conditions (Table 17, symbol A); format: in vivo, late watergrass (Echinochloa oryzicola); settings: AAH 320 g/ha; application during weed generation, submerged conditions
# In short: (§2)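 In this pot test, flooded alluvial soil (water depth 4 cm) holds all three species sown as a mixture. Once seedlings have one to two leaves, the compound's emulsion, thinned with water to the intended dose, is poured on the water; grading follows after three weeks on the earlier criteria.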
# Japanese bulrush [5] = experiment: Test Example 2: herbicidal activity, application during weed generation under submerged conditions (Table 17, symbol B); format: in vivo, Japanese bulrush (Schoenoplectus juncoides); settings: AAH 320 g/ha; application during weed generation, submerged conditions
# In short: as §2
# oval-leafed pondweed [6] = experiment: Test Example 2: herbicidal activity, application during weed generation under submerged conditions (Table 17, symbol C); format: in vivo, oval-leafed pondweed (Monochoria vaginalis); settings: AAH 320 g/ha; application during weed generation, submerged conditions
# In short: as §2
# barnyard grass [7] = experiment: Test Example 3: herbicidal effect by foliage application, Wagner pot (Table 18, symbol H); format: in vivo, barnyard grass (Echinochloa crus-galli); settings: for herbicidal effect on H: barnyard grass: amount of applied herbicide 320 g/ha
# In short: (§3)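 Plants were sown in alluvial soil held under 0.1–0.5 cm standing water and grown 14 days in a greenhouse at 25–30 °C. An emulsifiable formulation, water-diluted to the set dose, was then sprayed onto the foliage, and effects were scored three weeks later using previously defined criteria.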
# Chinese sprangletop = experiment: Test Example 3: herbicidal effect by foliage application, Wagner pot (Table 18, symbol D); format: in vivo, chinese sprangletop (Leptochloa chinensis); settings: for herbicidal effect on D: Chinese sprangletop: amount of applied herbicide 320 g/ha
# In short: as §3
# rice flat sedge = experiment: Test Example 3: herbicidal effect by foliage application, Wagner pot (Table 18, symbol E); format: in vivo, rice flat sedge (Cyperus iria); settings: for herbicidal effect on E: rice flat sedge: amount of applied herbicide 320 g/ha
# In short: as §3
# southern crabgrass [8] = experiment: Test Example 5: herbicidal effect by foliage application, plastic box (Table 20, symbol F); format: in vivo, southern crabgrass (Digitaria ciliaris); settings: foliage application, three weeks after application; for F: southern crabgrass, herbicidal effect grade: 320 g/ha
# In short: (§4)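 Sow seeds spot-wise in sterilized diluvial soil; cover with ~1.5 cm soil. Grow 14 days in greenhouse, 25° C. to 30° C. Spray foliage with emulsion diluted to predetermined amount. Rate effect after 3 weeks.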
# green foxtail [9] = experiment: Test Example 5: herbicidal effect by foliage application, plastic box (Table 20, symbol G); format: in vivo, green foxtail (Setaria viridis); settings: foliage application, three weeks after application; for G: green foxtail, herbicidal effect grade: 320 g/ha
# In short: as §4
# barnyard grass [10] = experiment: Test Example 5: herbicidal effect by foliage application, plastic box (Table 20, symbol H); format: in vivo, barnyard grass (Echinochloa crus-galli); settings: foliage application, three weeks after application; for H: barnyard grass, herbicidal effect grade: 320 g/ha
# In short: as §4
# wild oat = experiment: Test Example 5: herbicidal effect by foliage application, plastic box (Table 20, symbol I); format: in vivo, wild oat (Avena fatua); settings: foliage application, AAH 320 g/ha, three weeks after application
# In short: as §4
# blackgrass = experiment: Test Example 5: herbicidal effect by foliage application, plastic box (Table 20, symbol J); format: in vivo, blackgrass (Alopecurus myosuroides); settings: foliage application, AAH 320 g/ha, three weeks after application
# In short: as §4
# Italian ryegrass = experiment: Test Example 5: herbicidal effect by foliage application, plastic box (Table 20, symbol K); format: in vivo, Italian ryegrass (Lolium multiflorum); settings: foliage application, AAH 320 g/ha, three weeks after application
# In short: as §4
# windgrass = experiment: Test Example 5: herbicidal effect by foliage application, plastic box (Table 20, symbol L); format: in vivo, windgrass (Apera spica-venti); settings: foliage application, AAH 320 g/ha, three weeks after application
# In short: as §4
# velvetleaf [11] = experiment: Test Example 5: herbicidal effect by foliage application, plastic box (Table 20, symbol M); format: in vivo, velvetleaf (Abutilon theophrasti); settings: foliage application, three weeks after application; for M: velvetleaf, herbicidal effect grade: 320 g/ha
# In short: as §4
# redroot pigweed [12] = experiment: Test Example 5: herbicidal effect by foliage application, plastic box (Table 20, symbol N); format: in vivo, redroot pigweed (Amaranthus retroflexus); settings: foliage application, three weeks after application; for N: redroot pigweed, herbicidal effect grade: 320 g/ha
# In short: as §4
# lambsquarters [13] = experiment: Test Example 5: herbicidal effect by foliage application, plastic box (Table 20, symbol O); format: in vivo, lambsquarters (Chenopodium album); settings: foliage application, three weeks after application; for O: lambsquarters, herbicidal effect grade: 320 g/ha
# In short: as §4
# chickweed = experiment: Test Example 5: herbicidal effect by foliage application, plastic box (Table 20, symbol P); format: in vivo, common chickweed (Stellaria media); settings: foliage application, AAH 320 g/ha, three weeks after application
# In short: as §4
# persian speedwell = experiment: Test Example 5: herbicidal effect by foliage application, plastic box (Table 20, symbol R); format: in vivo, Persian speedwell (Veronica persica); settings: foliage application, AAH 320 g/ha, three weeks after application
# In short: as §4
# southern crabgrass [14] = experiment: Test Example 4: herbicidal effect by soil treatment (Table 19, symbol F); format: in vivo, southern crabgrass (Digitaria ciliaris); settings: amount of applied herbicide 320 g/ha
# In short: (§5)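 Applied as a water-diluted emulsion, the compound was sprayed onto soil covering newly sown seeds. Evaluation came three weeks after application, in a greenhouse held at 25° C. to 30° C.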
# green foxtail [15] = experiment: Test Example 4: herbicidal effect by soil treatment (Table 19, symbol G); format: in vivo, green foxtail (Setaria viridis); settings: amount of applied herbicide 320 g/ha
# In short: as §5
# barnyard grass [16] = experiment: Test Example 4: herbicidal effect by soil treatment (Table 19, symbol H); format: in vivo, barnyard grass (Echinochloa crus-galli); settings: amount of applied herbicide 320 g/ha
# In short: as §5
# velvetleaf [17] = experiment: Test Example 4: herbicidal effect by soil treatment (Table 19, symbol M); format: in vivo, velvetleaf (Abutilon theophrasti); settings: amount of applied herbicide 320 g/ha
# In short: as §5
# redroot pigweed [18] = experiment: Test Example 4: herbicidal effect by soil treatment (Table 19, symbol N); format: in vivo, redroot pigweed (Amaranthus retroflexus); settings: amount of applied herbicide 320 g/ha
# In short: as §5
# lambsquarters [19] = experiment: Test Example 4: herbicidal effect by soil treatment (Table 19, symbol O); format: in vivo, lambsquarters (Chenopodium album); settings: amount of applied herbicide 320 g/ha
# In short: as §5
SMILES,"herbicidal effect rating, A: late watergrass (late watergrass [4])","herbicidal effect rating, B: Japanese bulrush (Japanese bulrush [5])","herbicidal effect rating, C: oval-leafed pondweed (oval-leafed pondweed [6])","Herbicidal effect, A: late watergrass (late watergrass [1])","Herbicidal effect, B: Japanese bulrush (Japanese bulrush [2])","Herbicidal effect, C: oval-leafed pondweed (oval-leafed pondweed [3])",herbicidal effect on H: barnyard grass (barnyard grass [7]),herbicidal effect on D: Chinese sprangletop (Chinese sprangletop),herbicidal effect on E: rice flat sedge (rice flat sedge),"herbicidal effect, F: southern crabgrass (southern crabgrass [14])","herbicidal effect, G: green foxtail (green foxtail [15])","herbicidal effect, H: barnyard grass (barnyard grass [16])","herbicidal effect, M: velvetleaf (velvetleaf [17])","herbicidal effect, N: redroot pigweed (redroot pigweed [18])","herbicidal effect, O: lambsquarters (lambsquarters [19])","F: southern crabgrass, herbicidal effect grade (southern crabgrass [8])","G: green foxtail, herbicidal effect grade (green foxtail [9])","H: barnyard grass, herbicidal effect grade (barnyard grass [10])","M: velvetleaf, herbicidal effect grade (velvetleaf [11])","N: redroot pigweed, herbicidal effect grade (redroot pigweed [12])",other results
CCCC(=O)Oc1c(C)nn(C)c(=O)c1-c1c(-c2ccc([Si](C)(C)C)cc2)sc2ccccc12 [1-154],0 (Herbicidal rate of 5% or less (almost no effect)),2 (Herbicidal rate of 20% or more and less than 40%),0 (Herbicidal rate of 5% or less (almost no effect)),–,–,–,–,–,–,–,–,–,–,–,–,–,–,–,–,–,"Herbicidal effect on A: late watergrass (grade 0-5) (late watergrass [1]; 320 g/ha applied herbicide): 2 (Herbicidal rate of 20% or more and less than 40%); Herbicidal effect on B: Japanese bulrush (grade 0-5) (Japanese bulrush [2]; 320 g/ha applied herbicide): 0 (Herbicidal rate of 5% or less (almost no effect)); Herbicidal effect on C: oval-leafed pondweed (grade 0-5) (oval-leafed pondweed [3]; 320 g/ha applied herbicide): 0 (Herbicidal rate of 5% or less (almost no effect)); herbicidal effect on H (barnyard grass), rating 0-5 (barnyard grass [7]; 320 g/ha): 2 (Herbicidal rate of 20% or more and less than 40%); herbicidal effect on D (Chinese sprangletop), rating 0-5 (Chinese sprangletop; 320 g/ha): 3 (Herbicidal rate of 40% or more and less than 70%); herbicidal effect on E (rice flat sedge), rating 0-5 (rice flat sedge; 320 g/ha): 2 (Herbicidal rate of 20% or more and less than 40%); F: southern crabgrass, herbicidal effect (southern crabgrass [8]; AAH 320 g/ha): 0 (Herbicidal rate of 5% or less (almost no effect)); G: green foxtail, herbicidal effect (green foxtail [9]; AAH 320 g/ha): 0 (Herbicidal rate of 5% or less (almost no effect)); H: barnyard grass, herbicidal effect (barnyard grass [10]; AAH 320 g/ha): 0 (Herbicidal rate of 5% or less (almost no effect)); I: wild oat, herbicidal effect (wild oat): 0 (Herbicidal rate of 5% or less (almost no effect)); J: blackgrass, herbicidal effect (blackgrass): 0 (Herbicidal rate of 5% or less (almost no effect)); K: Italian ryegrass, herbicidal effect (Italian ryegrass): 0 (Herbicidal rate of 5% or less (almost no effect)); L: windgrass, herbicidal effect (windgrass): 0 (Herbicidal rate of 5% or less (almost no effect)); M: velvetleaf, herbicidal effect (velvetleaf [11]; AAH 320 g/ha): 0 (Herbicidal rate of 5% or less (almost no effect)); N: redroot pigweed, herbicidal effect (redroot pigweed [12]; AAH 320 g/ha): 3 (Herbicidal rate of 40% or more and less than 70%); O: lambsquarters, herbicidal effect (lambsquarters [13]; AAH 320 g/ha): 4 (Herbicidal rate of 70% or more and less than 90%); P: chickweed, herbicidal effect (chickweed): 0 (Herbicidal rate of 5% or less (almost no effect)); R: persian speedwell, herbicidal effect (persian speedwell): 4 (Herbicidal rate of 70% or more and less than 90%)"
CC(COc1ccc(-c2sc3ccc(F)cc3c2-c2c(O)c(C)nn(C)c2=O)cc1)=NO [2-453],3 (Herbicidal rate of 40% or more and less than 70%),4 (Herbicidal rate of 70% or more and less than 90%),4 (Herbicidal rate of 70% or more and less than 90%),3 (Herbicidal rate of 40% or more and less than 70%),3 (Herbicidal rate of 40% or more and less than 70%),3 (Herbicidal rate of 40% or more and less than 70%),5 (Herbicidal rate of 90% or more (almost completely withered)),3 (Herbicidal rate of 40% or more and less than 70%),2 (Herbicidal rate of 20% or more and less than 40%),5 (Herbicidal rate of 90% or more (almost completely withered)),5 (Herbicidal rate of 90% or more (almost completely withered)),5 (Herbicidal rate of 90% or more (almost completely withered)),5 (Herbicidal rate of 90% or more (almost completely withered)),5 (Herbicidal rate of 90% or more (almost completely withered)),5 (Herbicidal rate of 90% or more (almost completely withered)),5 (Herbicidal rate of 90% or more (almost completely withered)),5 (Herbicidal rate of 90% or more (almost completely withered)),5 (Herbicidal rate of 90% or more (almost completely withered)),5 (Herbicidal rate of 90% or more (almost completely withered)),5 (Herbicidal rate of 90% or more (almost completely withered)),"O: lambsquarters, herbicidal effect grade (lambsquarters [13]): 5 (Herbicidal rate of 90% or more (almost completely withered))"
COCCS(=O)(=O)c1ccc(-c2sc3ccc(F)cc3c2-c2c(O)c(C)nn(C)c2=O)cc1 [2-455],3 (Herbicidal rate of 40% or more and less than 70%),0 (Herbicidal rate of 5% or less (almost no effect)),0 (Herbicidal rate of 5% or less (almost no effect)),3 (Herbicidal rate of 40% or more and less than 70%),0 (Herbicidal rate of 5% or less (almost no effect)),0 (Herbicidal rate of 5% or less (almost no effect)),5 (Herbicidal rate of 90% or more (almost completely withered)),2 (Herbicidal rate of 20% or more and less than 40%),0 (Herbicidal rate of 5% or less (almost no effect)),4 (Herbicidal rate of 70% or more and less than 90%),4 (Herbicidal rate of 70% or more and less than 90%),0 (Herbicidal rate of 5% or less (almost no effect)),1 (Herbicidal rate of 5% or more and less than 20%),4 (Herbicidal rate of 70% or more and less than 90%),3 (Herbicidal rate of 40% or more and less than 70%),4 (Herbicidal rate of 70% or more and less than 90%),3 (Herbicidal rate of 40% or more and less than 70%),4 (Herbicidal rate of 70% or more and less than 90%),4 (Herbicidal rate of 70% or more and less than 90%),5 (Herbicidal rate of 90% or more (almost completely withered)),"O: lambsquarters, herbicidal effect grade (lambsquarters [13]): 3 (Herbicidal rate of 40% or more and less than 70%)"

# From US20230085307A1, “PYRIDAZINONE COMPOUND AND HERBICIDE” (NISSAN CHEMICAL CORPORATION, priority 2019, published 2023)
